According to US20130059783A1, “COMPOSITIONS AND METHODS FOR EXPANDING BFU-E CELLS” (priority 2010, published 2013):

What was measured:
Type in all cases: cell-based, mouse
[1] = system: BFU-E cells; assay: Serum free erythroid liquid expansion (SFELE) progenitor growth assay of sorted BFU-E cells; conditions: for Total cell expansion from 1000 BFU-E cells: CD71 10% low BFU-E cells, SFELE medium
Protocol: FIGS. 1A-1F. […] Error bars show one standard deviation. […] Error bars show one standard deviation. […] Shown is the fraction of c-kit+ cells after 72 hours. […] Cell numbers in each clone were estimated under the microscope on Day 8.
FIGS. 3A-3B. […] The experimental protocol was similar to that used in FIGS. 1A and B except that the CFU-E and BFU-E cells were purer (CD71 and CD24a^20% high and CD71 and CD24a^10% low, respectively). […] (A) Proliferation of sorted CFU-E cells. […] Error bars show one standard deviation. (B) Proliferation of sorted BFU-E cells. […] Error bars show one standard deviation.
FIG. 4. […] Cells were counted from day 4 until the day cell counts dropped.
(A) The total number of cells formed from 1000 BFU-E cells at different time points. […] Standard deviation between four separate biological experiments is shown in parenthesis (n/d=not determined).
We developed a modified version of the serum free erythroid liquid expansion culture (SFELE) medium described by Dolzning et al. (Dolznig et al., 2006).

[2] = system: miRNA expression in BFU-E cells; assay: Small RNA (miRNA) sequencing of BFU-E cells cultured 4 hours with or without Dex; conditions: 100 nM Dex
Source text: FIGS. 2A-2B. The effect of glucocorticoids on miRNA and mRNA expression in BFU-E cells determined by next generation sequencing. […] Both mRNAs and miRNAs were subjected to Illumina deep sequencing. […] (B) A plot similar to that in A for expression of individual mRNAs. mRNA expression was normalized using the RPKM method, which determines the relative expression of each gene to all expressed genes by giving each gene an RPKM count (number of uniquely aligning reads per kb exon per million total reads).
B) Percent of total miRNA expression of the 20 highest expressed miRNAs. C) Percent of total miRNA expression of the 20 highest expressed miRNA-families.
Differences in miRNA expression were determined as described previously (Baek et al., 2008). […] Since several miRNAs contain the same seed sequence and therefore target the same group of mRNAs we also compared changes in expression of miRNA families.
Small RNA sequencing was performed essentially as described (Grimson et al., 2008). […] The adaptor sequence was stripped and aligned to mouse NCBI build 37 (mm9) using ELAND. Reads mapping to the known microRNA hairpins were used for downstream analysis. Reads mapping to miRNA with more than one known copy in the genome were divided equally between the different loci. miRNA analysis methods to compute miRNA expression counts were derived from previously published methods (Baek et al., 2008).

[3] = system: fetal liver erythroid progenitor (FLEP) cells; assay: Colony forming assays of magnetically depleted fetal liver cells (Table S1)
Protocol: The negatively enriched cell populations were subjected to colony forming assays under two different conditions. […] CFU-E colonies were counted 3 days later. […] These cells were cultured 8-9 days before late BFU-E, early BFU-E, CFU-G/M/Mk (granulocyte, monocyte, megakaryocyte), and CFU-GEMM (granulocyte, erythrocyte, monocyte, megakaryocyte) colonies were scored. BFU-Es consisting of a cluster of only 5-20 CFU-Es were scored as late, while larger BFU-Es were scored as early. 2,7-fluorenediamine was used to stain hemoglobin-containing colonies in the plates. […] Standard deviation between experiments is shown in parenthesis.
The first step towards enrichment of BFU-E and CFU-E cells was to remove more mature blood cells from single cell suspensions of fetal livers by magnetic column depletion. We stained fetal liver cells with a panel of biotin labeled anti-lineage (Lin) antibodies (Ter119, B220, Mac-1, CD3 and Gr-1), followed by anti-biotin tetramer and magnetic colloid labeling. All positive cells were depleted using magnetic columns.
Colonies were scored after 3 days. […] The number of hemoglobinized early BFU-E and late BFU-E colonies was determined after 8-9 days following staining with 2,7-Diaminofluorene (Sigma Chemical, St. Louis, Mo.).

[4] = dose response curves in the absence of DMOG
[5] = Lin− fetal liver cells, EPO, SCF, IL-3, IL-6, 100 nM Dex
[6] = Lin−, CD32/16− cells, 100 nM Dex
[7] = Lin−, CD32/16−, Sca-1− cells, 100 nM Dex
[8] = Lin−, CD32/16−, Sca-1−, CD41− cells, 100 nM Dex
[9] = Lin−, CD32/16−, Sca-1−, CD41−, CD34− (FLEP cells), 100 nM Dex

## C[C@@H]1C[C@H]2[C@@H]3CCC4=CC(=O)C=C[C@]4(C)[C@@]3(F)[C@@H](O)C[C@]2(C)[C@@]1(O)C(=O)CO [Dex, dexamethasone]
[1]; CD24 and CD71 10% low BFU-E cells, 100 nM Dex and/or 333 μM DMOG
  Increase of total number of cells after the first three days: ~20 fold
[1]; CD24 and CD71 10% low BFU-E cells, SFELE, 100 nM Dex and/or 333 μM DMOG, day 1
  Total cell expansion from 1000 "BFU-E" cells, liquid culture: 3,900
[1]; CD24 and CD71 10% low BFU-E cells, SFELE, 100 nM Dex and/or 333 μM DMOG, day 2
  Total cell expansion from 1000 "BFU-E" cells, liquid culture: 30,000
[1]; CD24 and CD71 10% low BFU-E cells, SFELE, 100 nM Dex and/or 333 μM DMOG, day 3
  Total cell expansion from 1000 "BFU-E" cells, liquid culture: 200,000
[1]; CD24 and CD71 10% low BFU-E cells, SFELE, 100 nM Dex and/or 333 μM DMOG, day 4
  Total cell expansion from 1000 "BFU-E" cells, liquid culture: 1,200,000
[1]; CD24 and CD71 10% low BFU-E cells, SFELE, 100 nM Dex and/or 333 μM DMOG, day 5
  Total cell expansion from 1000 "BFU-E" cells, liquid culture: 3,500,000
[1]; CD24 and CD71 10% low BFU-E cells, SFELE, 100 nM Dex and/or 333 μM DMOG, day 6
  Total cell expansion from 1000 "BFU-E" cells, liquid culture: 7,200,000
[1]; CD24 and CD71 10% low BFU-E cells, SFELE, 100 nM Dex and/or 333 μM DMOG, day 7
  Total cell expansion from 1000 "BFU-E" cells, liquid culture: 14,000,000
[1]; CD24 and CD71 10% low BFU-E cells, SFELE, 100 nM Dex and/or 333 μM DMOG, day 8
  Total cell expansion from 1000 "BFU-E" cells, liquid culture: 20,000,000
[1]; CD24 and CD71 10% low BFU-E cells, SFELE, 100 nM Dex and/or 333 μM DMOG, day 9
  Total cell expansion from 1000 "BFU-E" cells, liquid culture: 25,000,000
[1]; CD24 and CD71 10% low BFU-E cells, SFELE, 100 nM Dex and/or 333 μM DMOG, day 10
  Total cell expansion from 1000 "BFU-E" cells, liquid culture: 25,000,000
[1]; CD24 and CD71 10% low BFU-E cells, SFELE, 100 nM Dex and/or 333 μM DMOG, day 11
  Total cell expansion from 1000 "BFU-E" cells, liquid culture: 20,000,000
[1]; 100 nM Dex, 24 h
  Total cell expansion from 1000 BFU-E cells: 5,367 (±1,626)
[1]; 100 nM Dex, 48 h
  Total cell expansion from 1000 BFU-E cells: 50,013 (±18,160)
[1]; 100 nM Dex, 72 h
  Total cell expansion from 1000 BFU-E cells: 297,340 (±114,540)
[1]; 100 nM Dex, 120 h
  Total cell expansion from 1000 BFU-E cells: 2,484,148 (±988,022)
[1]; CD71 10% low cells, SFELE, 100 nM Dex, peak at day 8
  Expansion of BFU-E cells, peak: 8,800 fold
[1]; CD71 and CD24a 10% low cells, SFELE, 100 nM Dex and/or 333 μM DMOG, versus no additions
  Increase of proliferation of sorted BFU-E cells: 42 fold
[1]; SFELE, 100 nM Dex
  Average number of divisions of each BFU-E cell: 13 times
  Cell number per original BFU-E cell: 8,800 cells per original BFU-E cell
[1]; [4]
  Dex concentrations at which a clear effect on CFU-E formation is seen: > 2 nM
  Dex concentrations giving maximum effect on CFU-E formation: above 10 nM
[1]; dose-response, FIG. 1 C and D
  Dex concentration that supports maximal stimulation of BFU-E proliferation: 10 nM
  Dex concentrations with little stimulatory effect on BFU-E proliferation: below 1 nM
[2]
  Increase in expression of the 100 highest expressed miRNAs: ≤ 50%
  Increase in miR-451 expression: 49%
[3]; [5]
  CFU-G/M/Meg colonies, scored day 8-9: 25 (±5) colonies per 1000 plated cells
  GEMM colonies, scored day 8-9: 7 (±4) colonies per 1000 plated cells
  early BFU-E colonies, scored day 8-9: 39 (±12) colonies per 1000 plated cells
  late BFU-E colonies, scored day 8-9: 53 (±13) colonies per 1000 plated cells
[3]; Lin− fetal liver cells, methylcellulose 10U EPO/mL, 100 nM Dex
  CFU-E colonies, scored day 3: 472 (±79) colonies per 1000 plated cells
[3]; [6]
  CFU-G/M/Meg colonies, scored day 8-9: 17 (±10) colonies per 1000 plated cells
  GEMM colonies, scored day 8-9: 5 (±2) colonies per 1000 plated cells
  early BFU-E colonies, scored day 8-9: 37 (±12) colonies per 1000 plated cells
  late BFU-E colonies, scored day 8-9: 69 (±14) colonies per 1000 plated cells
[3]; Lin−, CD32/16− fetal liver cells, 10U EPO/mL, 100 nM Dex
  CFU-E colonies, scored day 3: 560 (±245) colonies per 1000 plated cells
[3]; [7]
  CFU-G/M/Meg colonies, scored day 8-9: 7 (±3) colonies per 1000 plated cells
  GEMM colonies, scored day 8-9: 0.2 (±0.3) colonies per 1000 plated cells
  early BFU-E colonies, scored day 8-9: 24 (±5) colonies per 1000 plated cells
  late BFU-E colonies, scored day 8-9: 110 (±10) colonies per 1000 plated cells
[3]; [8]
  CFU-G/M/Meg colonies, scored day 8-9: 9 (±12) colonies per 1000 plated cells
  GEMM colonies, scored day 8-9: 0.3 (±0.4) colonies per 1000 plated cells
  early BFU-E colonies, scored day 8-9: 10 (±4) colonies per 1000 plated cells
  late BFU-E colonies, scored day 8-9: 142 (±77) colonies per 1000 plated cells
[3]; [9]
  CFU-G/M/Meg colonies, scored day 8-9: 4 (±6) colonies per 1000 plated cells
  GEMM colonies, scored day 8-9: 0.3 (±0.5) colonies per 1000 plated cells
  early BFU-E colonies, scored day 8-9: 23 (±17) colonies per 1000 plated cells
  late BFU-E colonies, scored day 8-9: 141 (±84) colonies per 1000 plated cells
